This note sets out measurements from patent publication US11453647B2, “Benzimidazole derivatives as adenosine receptor antagonists” (Merck Patent GmbH, priority 2017, dated 2022).

What all share (type): cell-based
One test addresses T1, human A1 receptor (Homo sapiens, UniProt P30542).
T1 construct: expressed in transfected cells; host or cells: CHO
T1 sequence (P30542 1-326): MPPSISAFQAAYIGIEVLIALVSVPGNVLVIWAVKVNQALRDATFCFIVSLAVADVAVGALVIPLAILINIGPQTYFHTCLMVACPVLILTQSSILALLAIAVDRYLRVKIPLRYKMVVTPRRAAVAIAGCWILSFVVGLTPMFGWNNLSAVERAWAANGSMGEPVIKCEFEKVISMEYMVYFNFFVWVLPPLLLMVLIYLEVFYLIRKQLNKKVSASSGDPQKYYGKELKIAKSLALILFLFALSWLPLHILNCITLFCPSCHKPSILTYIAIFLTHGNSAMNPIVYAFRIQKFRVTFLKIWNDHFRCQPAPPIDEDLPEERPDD
In words: functional cAMP (HTRF) assay, recombinant CHO cells expressing human A1 receptor, forskolin, agonist CPA. The gist of the method: (§1)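 Normalized HTRF cAMP signals (inhibitor and DMSO controls as references) were curve-fitted; assays used forskolin-stimulated CHO cells with A1 or A3, agonist CPA or IB-MECA respectively, 30 min compound incubation.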
In general terms: TR-FRET usually uses a lanthanide donor and a delayed reading to cut background.

The next test addresses T2, human A3 receptor (Homo sapiens, UniProt P0DMS8).
T2 construct: expressed in transfected cells; host or cells: CHO
T2 sequence (P0DMS8 1-318): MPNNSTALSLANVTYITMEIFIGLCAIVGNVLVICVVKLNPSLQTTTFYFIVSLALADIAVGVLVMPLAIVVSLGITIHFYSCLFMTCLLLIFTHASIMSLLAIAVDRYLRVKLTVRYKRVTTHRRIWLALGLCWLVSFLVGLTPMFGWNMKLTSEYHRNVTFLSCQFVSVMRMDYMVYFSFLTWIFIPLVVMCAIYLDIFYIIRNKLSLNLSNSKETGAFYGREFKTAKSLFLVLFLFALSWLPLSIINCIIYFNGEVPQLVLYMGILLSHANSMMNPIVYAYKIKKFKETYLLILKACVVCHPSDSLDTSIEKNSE
Nature of the test: functional cAMP (HTRF) assay, recombinant CHO cells expressing human A3 receptor, forskolin, agonist IB-MECA. In short, it runs like this:
as §1

Another test deals with T3, human A2A receptor (Homo sapiens, UniProt P29274).
T3 construct: expressed in transfected cells; host or cells: HEK293
Nature of the test: functional cAMP (HTRF) assay, recombinant HEK293 cells expressing human A2A receptor, agonist NECA.

The target in a further test is T4, A2B receptors (Homo sapiens, UniProt P29275).
T4 sequence (P29275 1-332): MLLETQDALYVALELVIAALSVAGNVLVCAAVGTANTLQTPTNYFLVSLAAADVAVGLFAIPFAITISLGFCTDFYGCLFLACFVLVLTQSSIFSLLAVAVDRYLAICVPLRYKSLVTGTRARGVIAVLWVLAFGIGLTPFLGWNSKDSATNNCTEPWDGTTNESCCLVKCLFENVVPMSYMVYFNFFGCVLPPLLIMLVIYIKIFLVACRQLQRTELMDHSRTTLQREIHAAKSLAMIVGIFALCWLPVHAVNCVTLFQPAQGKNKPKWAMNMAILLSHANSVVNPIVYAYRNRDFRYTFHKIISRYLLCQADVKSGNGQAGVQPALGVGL
Nature of the test: functional cAMP (HTRF) assay, recombinant HEK293 cells expressing human A2B receptor, agonist NECA. Details: expressed in transfected cells; host or cells: HEK293.

A value given as a limit tells only on which side of the number the result lay.

T3 sequence (P29274 whole entry): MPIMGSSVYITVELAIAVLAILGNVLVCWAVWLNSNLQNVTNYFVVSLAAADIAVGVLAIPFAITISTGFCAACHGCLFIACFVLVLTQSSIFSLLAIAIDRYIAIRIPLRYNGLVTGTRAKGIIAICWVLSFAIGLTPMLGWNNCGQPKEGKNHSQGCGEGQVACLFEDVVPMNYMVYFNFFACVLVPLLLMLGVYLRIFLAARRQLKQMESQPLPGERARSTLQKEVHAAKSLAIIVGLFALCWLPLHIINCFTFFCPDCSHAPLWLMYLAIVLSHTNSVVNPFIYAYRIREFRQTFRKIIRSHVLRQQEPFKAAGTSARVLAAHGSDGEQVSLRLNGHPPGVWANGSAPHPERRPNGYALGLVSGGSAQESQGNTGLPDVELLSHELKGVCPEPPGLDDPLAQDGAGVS

In the case of `COc1ccc(N2CCOCC2)c2nc(NC(=O)c3ccc(Cn4ccnc4)cc3)[nH]c12` [compound 76, 4-[(1H-imidazol-1-yl)methyl]-N-[7-methoxy-4-(morpholin-4-yl)-1H-1,3-benzodiazol-2-yl]benzamide], the IC50 on human A1 receptor was more than 1000 nM; at human A3 receptor, more than 1000 nM; at human A2A receptor, less than 10 nM; at A2B receptors, less than 1000 nM.

As to `COc1ccc(-c2cn[nH]c2)c2nc(NC(=O)N3CCC(C)(O)CC3)[nH]c12` [compound 79, 4-hydroxy-N-[7-methoxy-4-(1H-pyrazol-4-yl)-1H-1,3-benzodiazol-2-yl]-4-methylpiperidine-1-carboxamide], the IC50 is more than 1000 nM on human A1 receptor, more than 1000 nM on human A3 receptor, less than 100 nM at human A2A receptor and less than 1000 nM on A2B receptors.

On to `COc1ccc(-c2cnn(C)c2)c2nc(NC(=O)c3ccc4occc4c3)[nH]c12` [compound 80, N-[7-methoxy-4-(1-methyl-1H-pyrazol-4-yl)-1H-1,3-benzodiazol-2-yl]-1-benzofuran-5-carboxamide], for which the IC50 was more than 1000 nM at human A1 receptor, less than 1000 nM at human A3 receptor, less than 100 nM at human A2A receptor and less than 1000 nM on A2B receptors.

`COc1ccc(-c2cnn(C)c2)c2nc(NC(=O)c3ccon3)[nH]c12` [compound 84, N-[7-methoxy-4-(1-methyl-1H-pyrazol-4-yl)-1H-1,3-benzodiazol-2-yl]-1,2-oxazole-3-carboxamide]: the IC50 at human A1 receptor was less than 1000 nM; at human A3 receptor, less than 1000 nM; at human A2A receptor, less than 100 nM; on A2B receptors, less than 1000 nM.

With `COc1ccc(-c2ccncc2)c2nc(NC(=O)N3CCC4(COC4)C3)[nH]c12` [compound 85, N-[7-methoxy-4-(pyridin-4-yl)-1H-1,3-benzodiazol-2-yl]-2-oxa-6-azaspiro[3.4]octane-6-carboxamide], the IC50 on human A1 receptor is more than 1000 nM; at human A3 receptor it was more than 1000 nM; on human A2A receptor it was less than 100 nM; on A2B receptors, less than 1000 nM.

With `COc1ccc(N2CCOCC2)c2nc(NC(=O)c3cnn(C(CO)CCl)c3)[nH]c12` (centres unmarked) [compound 86, 1-(1-chloro-3-hydroxypropan-2-yl)-N-[7-methoxy-4-(morpholin-4-yl)-1H-1,3-benzodiazol-2-yl]-1H-pyrazole-4-carboxamide], the IC50 at human A1 receptor was more than 1000 nM; on human A3 receptor it was more than 1000 nM; at human A2A receptor, less than 10 nM; on A2B receptors it was more than 1000 nM.

`COc1ccc(C2CCOCC2)c2nc(NC(=O)c3ccc(CN(C)C)cc3)[nH]c12` [compound 88, 4-[(dimethylamino)methyl]-N-[7-methoxy-4-(oxan-4-yl)-1H-1,3-benzodiazol-2-yl]benzamide]: the IC50 on human A1 receptor is more than 1000 nM; on human A3 receptor it was more than 1000 nM; on human A2A receptor, less than 10 nM; at A2B receptors it was more than 1000 nM.

Take `COc1ccc(-c2cnn(C)c2)c2nc(NC(=O)c3ccnc(Br)c3)[nH]c12` [compound 95, 2-bromo-N-[7-methoxy-4-(1-methyl-1H-pyrazol-4-yl)-1H-1,3-benzodiazol-2-yl]pyridine-4-carboxamide]: the IC50 at human A1 receptor is less than 1000 nM; on human A3 receptor it was less than 10 nM; on human A2A receptor it was less than 10 nM; on A2B receptors, less than 1000 nM.

Turning to `COc1ccc(-c2cnn(C)c2)c2nc(NC(=O)c3ccc4ocnc4c3)[nH]c12` [compound 98, N-[7-methoxy-4-(1-methyl-1H-pyrazol-4-yl)-1H-1,3-benzodiazol-2-yl]-1,3-benzoxazole-5-carboxamide], the IC50 on human A1 receptor was more than 1000 nM; at human A3 receptor, less than 1000 nM; at human A2A receptor, less than 100 nM; on A2B receptors, less than 1000 nM.

Consider `COc1ccc(N2CCOCC2)c2nc(NC(=O)c3ccc(O)c(N)c3)[nH]c12` [compound 99, 3-amino-4-hydroxy-N-[7-methoxy-4-(morpholin-4-yl)-1H-1,3-benzodiazol-2-yl]benzamide], for which the IC50 is more than 1000 nM on human A1 receptor, more than 1000 nM on human A3 receptor, less than 10 nM on human A2A receptor and more than 1000 nM at A2B receptors.

Consider `COc1ccc(-c2cnn(C)c2)c2nc(NC(=O)c3ccc4c(c3)CCO4)[nH]c12` [compound 101, N-[7-methoxy-4-(1-methyl-1H-pyrazol-4-yl)-1H-1,3-benzodiazol-2-yl]-2,3-dihydro-l-benzofuran-5-carboxamide], for which the concentration for half-maximal inhibition (IC50) at human A1 receptor was less than 1000 nM; on human A3 receptor, less than 1000 nM; on human A2A receptor, less than 10 nM; on A2B receptors, less than 1000 nM.

As for `C#CCC1(O)CCN(C(=O)Nc2nc3c(C4CCOCC4)ccc(OC)c3[nH]2)CC1` [compound 102, 4-hydroxy-N-[7-methoxy-4-(oxan-4-yl)-1H-1,3-benzodiazol-2-yl]-4-(prop-2-yn-1-yl)piperidine-1-carboxamide], the IC50 on human A1 receptor was more than 1000 nM; at human A3 receptor, more than 1000 nM; at human A2A receptor it was less than 10 nM; on A2B receptors, more than 1000 nM.

Turning to `COc1ccc(C2CCOCC2)c2nc(NC(=O)N3CCC(O)(Cc4ccccc4)CC3)[nH]c12` [compound 103, 4-benzyl-4-hydroxy-N-[7-methoxy-4-(oxan-4-yl)-1H-1,3-benzodiazol-2-yl]piperidine-1-carboxamide], the IC50 was less than 1000 nM on human A1 receptor, more than 1000 nM at human A3 receptor, less than 10 nM at human A2A receptor and less than 1000 nM on A2B receptors.

In the case of `COc1ccc(-c2cnn(C)c2)c2nc(NC(=O)c3ccnc(N4CC[C@](C)(O)C4)c3)[nH]c12` [compound 104, 2-[(3S)-3-hydroxy-3-methylpyrrolidin-1-yl]-N-[7-methoxy-4-(1-methyl-1H-pyrazol-4-yl)-1H-1,3-benzodiazol-2-yl]pyridine-4-carboxamide], the IC50 on human A1 receptor is more than 1000 nM; at human A3 receptor it was less than 1000 nM; at human A2A receptor it was less than 10 nM; on A2B receptors, more than 1000 nM.

As to `COc1ccc(-c2cnn(C)c2)c2nc(NC(=O)c3ccnc(N4CCC(C)(O)CC4)c3)[nH]c12` [compound 105], the IC50 at human A1 receptor is more than 1000 nM; on human A3 receptor it was less than 1000 nM; at human A2A receptor it was less than 10 nM; on A2B receptors it was less than 1000 nM.

In the case of `COc1ccc(-c2cnn(C)c2)c2nc(NC(=O)c3ccnc(N4CCC5(CCOC5)C4)c3)[nH]c12` (centres unmarked) [compound 106, N-[7-methoxy-4-(1-methyl-1H-pyrazol-4-yl)-1H-1,3-benzodiazol-2-yl]-2-{2-oxa-7-azaspiro[4.4]nonan-7-yl}pyridine-4-carboxamide], the IC50 at human A1 receptor was more than 1000 nM; on human A3 receptor it was less than 1000 nM; at human A2A receptor, less than 10 nM; at A2B receptors, more than 1000 nM.

For the compound `COc1ccc(C2CCOCC2)c2nc(NC(=O)c3ccc4c(c3)CCO4)[nH]c12` [compound 108, N-[7-methoxy-4-(oxan-4-yl)-1H-1,3-benzodiazol-2-yl]-2,3-dihydro-1-benzofuran-5-carboxamide], the IC50 on human A1 receptor is more than 1000 nM; at human A3 receptor, less than 1000 nM; on human A2A receptor, less than 10 nM; on A2B receptors, less than 1000 nM.

With `COc1ccc(C2CCOCC2)c2nc(NC(=O)c3ccnc(N4CCC5(CCOC5)C4)c3)[nH]c12` (centres unmarked) [compound 119, N-[7-methoxy-4-(oxan-4-yl)-1H-1,3-benzodiazol-2-yl]-2-{2-oxa-7-azaspiro[4.4]nonan-7-yl}pyridine-4-carboxamide], the IC50 at human A1 receptor was more than 1000 nM; on human A3 receptor, more than 1000 nM; on human A2A receptor it was less than 10 nM; at A2B receptors, more than 1000 nM.

Take `COc1ccc(C2CCOCC2)c2nc(NC(=O)c3ccnc(N4CCC(C)(O)C4)c3)[nH]c12` (centres unmarked) [compound 122, 2-(3-hydroxy-3-methylpyrrolidin-1-yl)-N-[7-methoxy-4-(oxan-4-yl)-1H-1,3-benzodiazol-2-yl]pyridine-4-carboxamide]: the IC50 on human A1 receptor is more than 1000 nM; at human A3 receptor it was more than 1000 nM; on human A2A receptor it was less than 10 nM; on A2B receptors, more than 1000 nM.

Regarding `COCCC1CCN(C(=O)Nc2nc3c(-c4cnn(C)c4)ccc(OC)c3[nH]2)C1` (centres unmarked) [compound 134, N-[7-methoxy-4-(1-methyl-1H-pyrazol-4-yl)-1H-1,3-benzodiazol-2-yl]-3-(2-methoxyethyl)pyrrolidine-1-carboxamide], the IC50 on human A1 receptor was more than 1000 nM; on human A3 receptor, more than 1000 nM; at human A2A receptor, less than 100 nM; at A2B receptors it was less than 1000 nM.

As a reminder, the IC50 is the concentration needed to halve the response being measured.
